Our source for the IC50 values is patent US6673931B2, “Naphthalenyl piperidines as renin inhibitors” (Hoffman-La Roche Inc., priority 1999, dated 2004).

Each structure is given as a SMILES string. Counter-ions that a name gives are not always drawn.

In the experiment the target is T1, human renin (Homo sapiens, UniProt P00797).
T1 sequence (P00797 67-406): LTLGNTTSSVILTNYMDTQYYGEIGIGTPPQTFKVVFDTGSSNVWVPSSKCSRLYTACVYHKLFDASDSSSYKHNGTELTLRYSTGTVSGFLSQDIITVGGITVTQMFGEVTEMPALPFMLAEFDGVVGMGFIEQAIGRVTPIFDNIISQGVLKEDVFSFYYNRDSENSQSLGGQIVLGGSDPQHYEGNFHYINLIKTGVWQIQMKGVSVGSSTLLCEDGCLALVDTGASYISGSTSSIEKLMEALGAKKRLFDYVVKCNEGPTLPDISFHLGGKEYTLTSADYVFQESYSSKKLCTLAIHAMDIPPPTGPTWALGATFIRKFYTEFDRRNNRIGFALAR
In words: In vitro test with pure human renin (angiotensin I production via RIA). The format is biochemical. As to conditions: human tetradecapeptide renin substrate (hTD), pH 7.4, three hours at 37° C. How it is done:
The tests can be carried out in analogy to those described by D. T. Pals et al. in Hypertension Vol. 8, 1105-1112 (1986) or J. Boger et al. in J. Med. Chem. 28, 1779-1790 (1985) or J. F. Dellaria et al. in J. Med. Chem. 30,2137-2144 (1987) or T. Kokubu et al. in Biochem. Biophys. Res. Commun. 118, 929-933 (1984):
In vitro test with pure human renin:
The test is carried out in Eppendorf test tubes. The incubation mixture consists of (1) 100 μl of human renin in buffer A (0.1 M sodium phosphate solution, pH 7.4, containing 0.1% bovine serum albumin, 0.1% sodium azide and 1 mM ethylenediaminetetraacetic acid), sufficient for a renin activity of 2-3 ng of angiotensin I/ml/hr.; (2) 145 μl of buffer A: (3) 30 μl of 10 mM human tetradecapeptide renin substrate (hTD) in 10 mM hydrochloric acid: (4) 15 μl of dimethyl sulphoxide with or without inhibitor and (5) 10 μl of a 0.03 molar solution of hydroxyquinoline sulphate in water.
The samples are incubated for three hours at 37° C. and, respectively, 4° C. in triplicate. 2×100 μl samples per test tube are used in order to measure the production of angiotensin I via RIA (standard radioimmunoassay; clinical assay solid phase kit). Cross reactivities of the antibody used in the RIA are: angiotensin I 100%; angiotensin II 0.0013%; hTD (angiotensin I-Val-Ile-His-Ser-OH) 0.09%. The production of angiotensin I is determined by the difference between the test at 37° C. and that at 4° C.
The following controls are carried out:
(a) Incubation of hTD samples without renin and without inhibitor at 37° C. and 40° C. The difference between these two values gives the base value of the angiotensin I production.
(b) Incubation of hTD samples with renin, but without inhibitor at 37° C. and 4° C. The difference between these values gives the maximum value of the angiotensin I production.
In each sample the base value of the angiotensin I production is subtracted from the angiotensin I production which is determined. The difference between the maximum value and the base value gives the value of the maximum substrate hydrolysis (=100%) by renin.
The results are given as IC50 values which denote the concentration of the inhibitor at which the enzymatic activity is inhibited by 50%. The IC50 values are determined from a linear regression curve from a logit-log plot.
Take `COc1ccccc1COCCCOc1ccc([C@H]2[C@H](CO)CNC[C@@H]2OCc2cc(OC)c3ccccc3c2)cc1` [D, (3S,4R,5R)-[4-[4-[3-(2-methoxy-benzyloxy)-propoxy]-phenyl]-5-(4-methoxy-naphthalen-2-ylmethoxy)-piperidin-3-yl]-methanol]: 20 pM corresponded to half-maximal inhibition (IC50). Turning to `COC[C@@H](O)CO[C@@H]1CNC[C@H](OCc2cc(OC)c3ccccc3c2)[C@H]1c1ccc(OCCCOCc2ccccc2OC)cc1` [A, (R)-1-methoxy-3-[(3S,4R,5R)-4-[4-[3-(2-methoxy-benzyloxy)-propoxy]-phenyl]-5-(4-methoxy-naphthalen-2-ylmethoxy)-piperidin-3-yloxy]-propan-2-ol], it took 60 pM to reach half-maximal inhibition (IC50). `COc1ccccc1COCCCOc1ccc([C@H]2[C@H](Cn3ccnc3)CNC[C@@H]2OCc2cc(OC)c3ccccc3c2)cc1` [E, (3S,4R,5R)-3-imidazol-1-ylmethyl-4-[4-[3-(2-methoxy-benzyloxy)-propoxy]-phenyl]-5-(4-methoxy-naphthalen-2-ylmethoxy)-piperidine dihydrochloride] registered a half-maximal inhibitory concentration (IC50) of 70 pM.

Turning to `COCCOC[C@@H](O)CO[C@@H]1CNC[C@H](OCc2cc(OC)c3ccccc3c2)[C@H]1c1ccc(OCCCOCc2ccccc2OC)cc1` [B, (R)-1-[(3S,4R,5R)-4-[4-[3-(2-methoxy-benzyloxy)-propoxy]-phenyl]-5-(4-methoxy-naphthalen-2-ylmethoxy)-piperidin-3-yloxy]-3-(2-methoxy-ethoxy)-propan-2-ol], the IC50 was found to be 30 pM.

For `COc1cc(CO[C@H]2CNC[C@@H](OC[C@H](O)CO)[C@@H]2c2ccc(OCCCOc3ccccc3[N+](=O)[O-])cc2)cc2ccccc12` [C, (R)-3-[(3S,4R,5R)-5-(4-methoxy-naphthalen-2-ylmethoxy)-4-[4-[3-(2-nitro-phenoxy)-propoxy]-phenyl]-piperidin-3-yloxy]-propane-1,2-diol], the half-maximal inhibitory concentration (IC50) stood at 80 pM.
